Assay: mn = molality of the nth substance listed, in mol/kg
Conditions: 350 kPa, Liquid, Extra sensitive DSC

OC[C@H]1O[C@@](CO)(O[C@H]2O[C@H](CO)[C@@H](O)[C@H](O)[C@H]2O)[C@@H](O)[C@@H]1O [D-sucrose] + O
apparent molar heat capacity [J/K/mol]
Conditions	278.15 K	283.15 K	288.15 K	293.15 K	298.15 K	303.15 K	308.15 K	313.15 K	318.15 K
m1 = 0.01461	532.5	567.4	596.7	622	642.1	660.7	679	695.3	709.1
m1 = 0.03048	533.5	567.3	596.6	621.8	642.9	662.1	679.1	695.1	709.4
m1 = 0.06172	533.8	568.9	597.7	622.6	644	663	680.3	696.3	710.4
m1 = 0.1302	535.7	569.8	598.1	622.7	643.9	663.2	680.3	696.2	710.3
m1 = 0.2486	538.6	572	599.7	623.7	644.7	663.8	680.6	696.3	710.3
m1 = 0.4969	544.2	575.9	602.4	625.6	646	664.5	680.9	696.3	710.1
m1 = 0.746	548.9	579.3	604.7	627.1	646.9	665.1	681.1	696.2	709.8
m1 = 0.9972	554.2	583.7	608.3	629.8	649.1	666.8	682.4	697.3	710.5
m1 = 1.489	560.3	587.9	611	631.4	649.6	666.5	681.8	696.3	709.1
m1 = 1.99	566.8	593.1	614.9	634.1	651.6	667.8	682.4	696.4	709.1
m1 = 2.99	577.9	601.8	621.5	639	655.2	670.4	683.9	697.1	709.1
m1 = 3.995	587.9	610	628.2	644.5	659.4	673.5	686.3	698.8	710.2
